{"source": "patent US9149038B2", "about": "“4-amino-6-(heterocyclic)picolinates and 6-amino-2-(heterocyclic)pyrimidine-4-carboxylates and their use as herbicides” (Dow AgroSciences LLC, priority 2013, dated 2015)", "tested_on": "Direct Seeded Rice and weed species", "assay": "Postemergence herbicidal activity in direct seeded rice, visual rating after 20-22 days and probit GR20/GR50/GR80/GR90 (Table 14)", "assay_type": "in vivo", "conditions": "for pest or weed control at 17.5 g/ha / pest or weed control at 35 g/ha / pest or weed control at 70 g/ha: post-emergence, 504 h, postemergence; for pest or weed control at 17.5 g/ha: 17.5 g ai/ha; for pest or weed control at 35 g/ha: 35 g ai/ha; for pest or weed control at 70 g/ha: 70 g ai/ha", "in_short": "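Visual injury scores (0 = none, 100 = complete kill) taken 20-22 days after treatment and fitted by probit analysis over several doses to give GR20/GR50/GR80/GR90. Plants at 2nd–3rd true leaf in pH about 8.1 loam–sand mix received track-sprayer applications of 187 L/ha containing 1.25% (v/v) crop oil concentrate.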", "key": {"[1]": {"conditions": "BRAPP (broadleaf signalgrass, Brachiaria platyphylla), read-out: Visual Growth Reduction (%) 21 Days After Application BRAPP"}, "[2]": {"conditions": "CYPDI (small-flower flatsedge, Cyperus difformis), read-out: Visual Growth Reduction (%) 21 Days After Application CYPDI"}, "[3]": {"conditions": "CYPES (yellow nutsedge, Cyperus esculentus), read-out: Visual Growth Reduction (%) 21 Days After Application CYPES"}, "[4]": {"conditions": "CYPIR (rice flatsedge, Cyperus iria), read-out: Visual Growth Reduction (%) 21 Days After Application CYPIR"}, "[5]": {"conditions": "DIGSA (large crabgrass, Digitaria sanguinalis), read-out: Visual Growth Reduction (%) 21 Days After Application DIGSA"}, "[6]": {"conditions": "ECHCG (barnyardgrass, Echinochloa crus-galli), read-out: Visual Growth Reduction (%) 21 Days After Application ECHCG"}, "[7]": {"conditions": "ECHCO (junglerice, Echinochloa colonum), read-out: Visual Growth Reduction (%) 21 Days After Application ECHCO"}, "[8]": {"conditions": "LEFCH (Chinese sprangletop, Leptochloa chinensis), read-out: Visual Growth Reduction (%) 21 Days After Application LEFCH"}, "[9]": {"conditions": "ORYSJ (Oryza sativa, rice crop), read-out: Visual Growth Reduction (%) 21 Days After Application ORYSJ"}, "[10]": {"conditions": "ORYSK (Oryza sativa, rice crop), read-out: Visual Growth Reduction (%) 21 Days After Application ORYSK"}, "[11]": {"conditions": "SCPJU (Japanese bulrush, Schoenoplectus juncoides Roxb.), read-out: Visual Growth Reduction (%) 21 Days After Application SCPJU"}, "[12]": {"conditions": "SEBEX (hemp sesbania, Sesbania exaltata), read-out: Visual Growth Reduction (%) 21 Days After Application SEBEX"}}, "note": "Read-outs that look alike come from different tables or passages of the source."}
{"smiles": "Nc1cc(-c2ccc3c(c2F)OC(F)(F)O3)nc(C(=O)O)c1Cl", "note": "[Compound 41]", "values": [{"measurement": "GR50 BRAPP", "setting": "BRAPP (Brachiaria platyphylla), probit analysis, dose for 50 percent growth reduction", "result": 0.3, "unit": "g ai/ha"}, {"measurement": "GR80 BRAPP", "setting": "BRAPP (Brachiaria platyphylla), probit analysis, dose for 80 percent growth reduction", "result": 2, "unit": "g ai/ha"}, {"measurement": "GR90 BRAPP", "setting": "BRAPP (Brachiaria platyphylla), probit analysis, dose for 90 percent growth reduction", "result": 6, "unit": "g ai/ha"}, {"measurement": "GR50 CYPDI", "setting": "CYPDI (Cyperus difformis), probit analysis, dose for 50 percent growth reduction", "result": 4, "unit": "g ai/ha"}, {"measurement": "GR80 CYPDI", "setting": "CYPDI (Cyperus difformis), probit analysis, dose for 80 percent growth reduction", "result": 6, "unit": "g ai/ha"}, {"measurement": "GR90 CYPDI", "setting": "CYPDI (Cyperus difformis), probit analysis, dose for 90 percent growth reduction", "result": 7, "unit": "g ai/ha"}, {"measurement": "GR50 CYPES", "setting": "CYPES (Cyperus esculentus), probit analysis, dose for 50 percent growth reduction", "result": 0.0001, "unit": "g ai/ha"}, {"measurement": "GR80 CYPES", "setting": "CYPES (Cyperus esculentus), probit analysis, dose for 80 percent growth reduction", "result": 0.0001, "unit": "g ai/ha"}, {"measurement": "GR90 CYPES", "setting": "CYPES (Cyperus esculentus), probit analysis, dose for 90 percent growth reduction", "result": 0.0001, "unit": "g ai/ha"}, {"measurement": "GR50 CYPIR", "setting": "CYPIR (Cyperus iria), probit analysis, dose for 50 percent growth reduction", "result": 0.0001, "unit": "g ai/ha"}, {"measurement": "GR80 CYPIR", "setting": "CYPIR (Cyperus iria), probit analysis, dose for 80 percent growth reduction", "result": 0.0001, "unit": "g ai/ha"}, {"measurement": "GR90 CYPIR", "setting": "CYPIR (Cyperus iria), probit analysis, dose for 90 percent growth reduction", "result": 0.0001, "unit": "g ai/ha"}, {"measurement": "GR50 DIGSA", "setting": "DIGSA (Digitaria sanguinalis), probit analysis, dose for 50 percent growth reduction", "result": 0.001, "unit": "g ai/ha"}, {"measurement": "GR80 DIGSA", "setting": "DIGSA (Digitaria sanguinalis), probit analysis, dose for 80 percent growth reduction", "result": 0.131, "unit": "g ai/ha"}, {"measurement": "GR90 DIGSA", "setting": "DIGSA (Digitaria sanguinalis), probit analysis, dose for 90 percent growth reduction", "result": 2, "unit": "g ai/ha"}, {"measurement": "GR50 ECHCG", "setting": "ECHCG (Echinochloa crus-galli), probit analysis, dose for 50 percent growth reduction", "result": 0.0018, "unit": "g ai/ha"}, {"measurement": "GR80 ECHCG", "setting": "ECHCG (Echinochloa crus-galli), probit analysis, dose for 80 percent growth reduction", "result": 0.0018, "unit": "g ai/ha"}, {"measurement": "GR90 ECHCG", "setting": "ECHCG (Echinochloa crus-galli), probit analysis, dose for 90 percent growth reduction", "result": 0.0018, "unit": "g ai/ha"}, {"measurement": "GR50 ECHCO", "setting": "ECHCO (Echinochloa colonum), probit analysis, dose for 50 percent growth reduction", "result": 0.0003, "unit": "g ai/ha"}, {"measurement": "GR80 ECHCO", "setting": "ECHCO (Echinochloa colonum), probit analysis, dose for 80 percent growth reduction", "result": 0.0415, "unit": "g ai/ha"}, {"measurement": "GR90 ECHCO", "setting": "ECHCO (Echinochloa colonum), probit analysis, dose for 90 percent growth reduction", "result": 1, "unit": "g ai/ha"}, {"measurement": "GR50 LEFCH", "setting": "LEFCH (Leptochloa chinensis), probit analysis, dose for 50 percent growth reduction", "result": 6, "unit": "g ai/ha"}, {"measurement": "GR80 LEFCH", "setting": "LEFCH (Leptochloa chinensis), probit analysis, dose for 80 percent growth reduction", "result": 13, "unit": "g ai/ha"}, {"measurement": "GR90 LEFCH", "setting": "LEFCH (Leptochloa chinensis), probit analysis, dose for 90 percent growth reduction", "result": 20, "unit": "g ai/ha"}, {"measurement": "GR20 ORYSJ", "setting": "ORYSJ (Oryza sativa, rice crop), probit analysis, dose for 20 percent growth reduction", "result": 1, "unit": "g ai/ha"}, {"measurement": "GR20 ORYSK", "setting": "ORYSK (Oryza sativa, rice crop), probit analysis, dose for 20 percent growth reduction", "result": 2, "unit": "g ai/ha"}, {"measurement": "GR50 SCPJU", "setting": "SCPJU (Schoenoplectus juncoides Roxb.), probit analysis, dose for 50 percent growth reduction", "result": 0.0001, "unit": "g ai/ha"}, {"measurement": "GR80 SCPJU", "setting": "SCPJU (Schoenoplectus juncoides Roxb.), probit analysis, dose for 80 percent growth reduction", "result": 0.0001, "unit": "g ai/ha"}, {"measurement": "GR90 SCPJU", "setting": "SCPJU (Schoenoplectus juncoides Roxb.), probit analysis, dose for 90 percent growth reduction", "result": 0.0001, "unit": "g ai/ha"}, {"measurement": "GR50 SEBEX", "setting": "SEBEX (Sesbania exaltata), probit analysis, dose for 50 percent growth reduction", "result": 4, "unit": "g ai/ha"}, {"measurement": "GR80 SEBEX", "setting": "SEBEX (Sesbania exaltata), probit analysis, dose for 80 percent growth reduction", "result": 9, "unit": "g ai/ha"}, {"measurement": "GR90 SEBEX", "setting": "SEBEX (Sesbania exaltata), probit analysis, dose for 90 percent growth reduction", "result": 13, "unit": "g ai/ha"}, {"measurement": "pest or weed control at 17.5 g/ha", "setting": "[1]", "result": "95 to 100", "unit": "%"}, {"measurement": "pest or weed control at 35 g/ha", "setting": "[1]", "result": "95 to 100", "unit": "%"}, {"measurement": "pest or weed control at 70 g/ha", "setting": "[1]", "result": "95 to 100", "unit": "%"}, {"measurement": "pest or weed control at 17.5 g/ha", "setting": "[2]", "result": "95 to 100", "unit": "%"}, {"measurement": "pest or weed control at 35 g/ha", "setting": "[2]", "result": "95 to 100", "unit": "%"}, {"measurement": "pest or weed control at 70 g/ha", "setting": "[2]", "result": "95 to 100", "unit": "%"}, {"measurement": "pest or weed control at 17.5 g/ha", "setting": "[3]", "result": "95 to 100", "unit": "%"}, {"measurement": "pest or weed control at 35 g/ha", "setting": "[3]", "result": "95 to 100", "unit": "%"}, {"measurement": "pest or weed control at 70 g/ha", "setting": "[3]", "result": "95 to 100", "unit": "%"}, {"measurement": "pest or weed control at 17.5 g/ha", "setting": "[4]", "result": "95 to 100", "unit": "%"}, {"measurement": "pest or weed control at 35 g/ha", "setting": "[4]", "result": "95 to 100", "unit": "%"}, {"measurement": "pest or weed control at 70 g/ha", "setting": "[4]", "result": "95 to 100", "unit": "%"}, {"measurement": "pest or weed control at 17.5 g/ha", "setting": "[5]", "result": "95 to 100", "unit": "%"}, {"measurement": "pest or weed control at 35 g/ha", "setting": "[5]", "result": "95 to 100", "unit": "%"}, {"measurement": "pest or weed control at 70 g/ha", "setting": "[5]", "result": "95 to 100", "unit": "%"}, {"measurement": "pest or weed control at 17.5 g/ha", "setting": "[6]", "result": "85 to 94", "unit": "%"}, {"measurement": "pest or weed control at 35 g/ha", "setting": "[6]", "result": "95 to 100", "unit": "%"}, {"measurement": "pest or weed control at 70 g/ha", "setting": "[6]", "result": "95 to 100", "unit": "%"}, {"measurement": "pest or weed control at 17.5 g/ha", "setting": "[7]", "result": "95 to 100", "unit": "%"}, {"measurement": "pest or weed control at 35 g/ha", "setting": "[7]", "result": "95 to 100", "unit": "%"}, {"measurement": "pest or weed control at 70 g/ha", "setting": "[7]", "result": "95 to 100", "unit": "%"}, {"measurement": "pest or weed control at 17.5 g/ha", "setting": "[8]", "result": "85 to 94", "unit": "%"}, {"measurement": "pest or weed control at 35 g/ha", "setting": "[8]", "result": "95 to 100", "unit": "%"}, {"measurement": "pest or weed control at 70 g/ha", "setting": "[8]", "result": "95 to 100", "unit": "%"}, {"measurement": "pest or weed control at 17.5 g/ha", "setting": "[9]", "result": "85 to 94", "unit": "%"}, {"measurement": "pest or weed control at 35 g/ha", "setting": "[9]", "result": "95 to 100", "unit": "%"}, {"measurement": "pest or weed control at 70 g/ha", "setting": "[9]", "result": "95 to 100", "unit": "%"}, {"measurement": "pest or weed control at 17.5 g/ha", "setting": "[10]", "result": "60 to 74", "unit": "%"}, {"measurement": "pest or weed control at 35 g/ha", "setting": "[10]", "result": "75 to 84", "unit": "%"}, {"measurement": "pest or weed control at 70 g/ha", "setting": "[10]", "result": "85 to 94", "unit": "%"}, {"measurement": "pest or weed control at 17.5 g/ha", "setting": "[11]", "result": "95 to 100", "unit": "%"}, {"measurement": "pest or weed control at 35 g/ha", "setting": "[11]", "result": "95 to 100", "unit": "%"}, {"measurement": "pest or weed control at 70 g/ha", "setting": "[11]", "result": "95 to 100", "unit": "%"}, {"measurement": "pest or weed control at 17.5 g/ha", "setting": "[12]", "result": "95 to 100", "unit": "%"}, {"measurement": "pest or weed control at 35 g/ha", "setting": "[12]", "result": "95 to 100", "unit": "%"}, {"measurement": "pest or weed control at 70 g/ha", "setting": "[12]", "result": "95 to 100", "unit": "%"}]}
